Data from patent US6214859A, “Ethylamine derivatives” (Fujimoto Brothers Co., Ltd., priority 1997, dated 2001).
Several values for one entry are separate records, joined by “and”; a condition that tells them apart may be missing. Identical values can stand only once.

How the values were obtained:
[1] = tested on: rats reduced learning ability by tetrabenazine; experiment: Conditioned avoidance task in the shuttle box (tetrabenazine-treated rats); format: in vivo, rat; settings: tetrabenazine 1 mg/kg s.c., significance and direction
How it was run: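 Male and female rats (200–220 g) were trained in a shuttle box (light/buzzer conditioned stimulus, 100 trials/day for 5 days). Tetrabenazine 1 mg/kg s.c. was given 1 h before testing, with compound at 1, 2, 2.5 or 5 mg/kg s.c. given together with tetrabenazine. CARs, EFs and IRs were counted automatically and analysed by multi-way ANOVA.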

[2] = tested on: dopamine release, substantia nigra; experiment: Release of biogenic amines from brain tissue: dopamine, substantia nigra; format: in vivo, Wistar rats
[3] = tested on: dopamine release, tuberculum olfactorium; experiment: Release of biogenic amines from brain tissue: dopamine, tuberculum olfactorium; format: in vivo, Wistar rats
[4] = tested on: noradrenaline release, locus coeruleus; experiment: Release of biogenic amines from brain tissue: noradrenaline, locus coeruleus; format: in vivo, Wistar rats
serotonin release, raphe = experiment: Release of biogenic amines from brain tissue: serotonin, raphe; format: in vivo, Wistar rats
[5] = Toxicity screening using primary cultured hepatocyte (LDH release); format: cell-based, rat; settings: rat, primary hepatocytes, 24 hr, control 0.5% saline or 0.5% DMSO, read-out: Percent control of LDH release
Description: The hepatocytes was prepared from rat liver by collagenase perfusion method and suspension containing 5×10^5 cells/ml were prepared. After cultivation for 24 hr, the suspension was exchanged to the William's Medium E (GIBCO BRL) containing 10 or 100 μM of the compounds of this invention. After cultivation for 24 hr, the activity of lactate dehydrogenase (LDH) released in the medium was measured.

## CCCNC(CCC)Cc1ccc2c(c1)OCO2.Cl (centres unmarked) [Compound No. 27, 1-(1,3-Benzodioxol-5-yl)-2-propylaminopentane Hydrochloride]
[1]; 1 mg/kg s.c.
  Condition Avoidance Reflex (CARs): *** .Arrow-up bold.
  Escape Failures (EFs): *** .dwnarw.
[2]; 0.10 mg/kg s.c.
  Release of dopamine, substantia nigra: 7.8 ± 0.44 nmol/g tissue, for 20 min
[2]; 0.25 mg/kg s.c.
  Release of dopamine, substantia nigra: 9.5 ± 0.32 nmol/g tissue, for 20 min
[3]; 0.10 mg/kg s.c.
  Release of dopamine, tuberculum olfactorium: 4.7 ± 0.13 nmol/g tissue, for 20 min
[3]; 0.25 mg/kg s.c.
  Release of dopamine, tuberculum olfactorium: 5.2 ± 0.23 nmol/g tissue, for 20 min
[4]; 0.10 mg/kg s.c.
  Release of noradrenaline, locus coeruleus: 3.8 ± 0.15 nmol/g tissue, for 20 min
[4]; 0.25 mg/kg s.c.
  Release of noradrenaline, locus coeruleus: 3.5 ± 0.20 nmol/g tissue, for 20 min
Serotonin release, raphe; 0.10 mg/kg s.c.
  Release of serotonin, raphe: 0.399 ± 0.00 nmol/g tissue, for 20 min
Serotonin release, raphe; 0.25 mg/kg s.c.
  Release of serotonin, raphe: 0.414 ± 0.01 nmol/g tissue, for 20 min
[5]
  activity at 24 h, 10 µM: 115 ± 10.8%
  activity at 24 h, 100 µM: 114 ± 11.2%

## CCCNC(CCC)Cc1c[nH]c2ccccc12.Cl (centres unmarked) [Compound No. 20, 1-(Indol-3-yl)-2-propylaminopentane Hydrochloride]
[1]; 1 mg/kg s.c., Hydrochloride
  Condition Avoidance Reflex (CARs): * .Arrow-up bold.
[1]; 2.5 mg/kg s.c.
  Condition Avoidance Reflex (CARs): **** .Arrow-up bold.
  Escape Failures (EFs): **** .dwnarw.
[1]; 5 mg/kg s.c.
  Condition Avoidance Reflex (CARs): **** .Arrow-up bold.
  Escape Failures (EFs): * .dwnarw.
  Intersignal Reactions (IRs): * .dwnarw.
[2]; 0.005 mg/kg s.c.
  Release of dopamine, substantia nigra: 8.7 ± 0.13 nmol/g tissue, for 20 min
[2]; 0.01 mg/kg s.c., Hydrochloride
  Release of dopamine, substantia nigra: 10.3 ± 0.23 nmol/g tissue, for 20 min and 10.0 ± 0.14 nmol/g tissue, for 20 min
[2]; 0.05 mg/kg s.c.
  Release of dopamine, substantia nigra: 7.7 ± 0.15 nmol/g tissue, for 20 min
[2]; 0.25 mg/kg s.c.
  Release of dopamine, substantia nigra: 5.2 ± 0.26 nmol/g tissue, for 20 min
[2]; 1.00 mg/kg s.c.
  Release of dopamine, substantia nigra: 6.7 ± 0.19 nmol/g tissue, for 20 min
[2]; 5.00 mg/kg s.c.
  Release of dopamine, substantia nigra: 5.7 ± 0.18 nmol/g tissue, for 20 min
[3]; 0.005 mg/kg s.c.
  Release of dopamine, tuberculum olfactorium: 7.0 ± 0.25 nmol/g tissue, for 20 min
[3]; 0.01 mg/kg s.c., Hydrochloride
  Release of dopamine, tuberculum olfactorium: 8.0 ± 0.17 nmol/g tissue, for 20 min and 5.5 ± 0.20 nmol/g tissue, for 20 min
[3]; 0.05 mg/kg s.c.
  Release of dopamine, tuberculum olfactorium: 5.8 ± 0.19 nmol/g tissue, for 20 min
[3]; 0.25 mg/kg s.c.
  Release of dopamine, tuberculum olfactorium: 3.5 ± 0.21 nmol/g tissue, for 20 min
[3]; 1.00 mg/kg s.c.
  Release of dopamine, tuberculum olfactorium: 4.3 ± 0.07 nmol/g tissue, for 20 min
[3]; 5.00 mg/kg s.c.
  Release of dopamine, tuberculum olfactorium: 4.8 ± 0.09 nmol/g tissue, for 20 min
[4]; 0.005 mg/kg s.c.
  Release of noradrenaline, locus coeruleus: 5.3 ± 0.30 nmol/g tissue, for 20 min
[4]; 0.01 mg/kg s.c., Hydrochloride
  Release of noradrenaline, locus coeruleus: 4.3 ± 0.10 nmol/g tissue, for 20 min and 2.2 ± 0.15 nmol/g tissue, for 20 min
[4]; 0.05 mg/kg s.c.
  Release of noradrenaline, locus coeruleus: 3.2 ± 0.15 nmol/g tissue, for 20 min
[4]; 0.25 mg/kg s.c.
  Release of noradrenaline, locus coeruleus: 4.3 ± 0.15 nmol/g tissue, for 20 min
[4]; 1.00 mg/kg s.c.
  Release of noradrenaline, locus coeruleus: 4.4 ± 0.25 nmol/g tissue, for 20 min
[4]; 5.00 mg/kg s.c.
  Release of noradrenaline, locus coeruleus: 3.5 ± 0.20 nmol/g tissue, for 20 min
Serotonin release, raphe; 0.005 mg/kg s.c.
  Release of serotonin, raphe: 0.492 ± 0.02 nmol/g tissue, for 20 min
Serotonin release, raphe; 0.01 mg/kg s.c., Hydrochloride
  Release of serotonin, raphe: 0.961 ± 0.02 nmol/g tissue, for 20 min and 0.938 ± 0.01 nmol/g tissue, for 20 min
Serotonin release, raphe; 0.05 mg/kg s.c.
  Release of serotonin, raphe: 1.203 ± 0.08 nmol/g tissue, for 20 min
Serotonin release, raphe; 0.25 mg/kg s.c.
  Release of serotonin, raphe: 0.481 ± 0.05 nmol/g tissue, for 20 min
Serotonin release, raphe; 1.00 mg/kg s.c.
  Release of serotonin, raphe: 0.355 ± 0.05 nmol/g tissue, for 20 min
Serotonin release, raphe; 5.00 mg/kg s.c.
  Release of serotonin, raphe: 0.565 ± 0.01 nmol/g tissue, for 20 min
[5]
  activity at 24 h, 10 µM: 92.7 ± 5.31%
  activity at 24 h, 100 µM: 185 ± 3.45%
